Test results published in ChEMBL document CHEMBL1909294, “Translating clinical findings into knowledge in drug safety evaluation--drug induced liver injury prediction system (DILIps)” (PLoS Comput Biol, 2011).

How the values were obtained:
[1] = system: Hepatotoxicity;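 on HepSE Combined Scores: combined hepatic side effect score as listed in the training data of the Drug Induced Liver Injury Prediction System (DILIps)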;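 on HepSE bilirubinemia: bilirubinemia hepatic side effect score drawn from the DILIps training data, a prediction system for drug-induced liver injury; call rule not given here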;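 on HepSE cirrhosis: cirrhosis hepatic side effect score taken from the DILIps (drug-induced liver injury prediction) training set; call rule not given here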; on HepSE hepatic failure: call rule not given here;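 on HepSE hepatomegaly: hepatic side effect score for hepatomegaly, taken from the training set of the DILIps drug-induced liver injury prediction system; call rule not given here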; on HepSE liver disease: call rule not given here;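 on HepSE liver function tests abnormal: hepatic side effect score taken from the DILIps (drug-induced liver injury prediction system) training data, here covering abnormal liver function test findings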
[2] = system: Hepatotoxicity; remark: listed apart in the source;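 on HepSE Combined Scores: combined hepatic side effect score as listed in the training data of the Drug Induced Liver Injury Prediction System (DILIps)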;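 on HepSE bilirubinemia: bilirubinemia hepatic side effect score drawn from the DILIps training data, a prediction system for drug-induced liver injury; call rule not given here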;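 on HepSE cirrhosis: cirrhosis hepatic side effect score taken from the DILIps (drug-induced liver injury prediction) training set; call rule not given here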; on HepSE hepatic failure: call rule not given here;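 on HepSE hepatomegaly: hepatic side effect score for hepatomegaly, taken from the training set of the DILIps drug-induced liver injury prediction system; call rule not given here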; on HepSE liver disease: call rule not given here;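 on HepSE liver function tests abnormal: hepatic side effect score taken from the DILIps (drug-induced liver injury prediction system) training data, here covering abnormal liver function test findings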
[3] = system: Hepatotoxicity; remark: listed apart in the source;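 on HepSE Combined Scores: combined hepatic side effect score as listed in the training data of the Drug Induced Liver Injury Prediction System (DILIps)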;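 on HepSE bilirubinemia: bilirubinemia hepatic side effect score drawn from the DILIps training data, a prediction system for drug-induced liver injury; call rule not given here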;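 on HepSE cirrhosis: cirrhosis hepatic side effect score taken from the DILIps (drug-induced liver injury prediction) training set; call rule not given here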; on HepSE hepatic failure: call rule not given here;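 on HepSE hepatomegaly: hepatic side effect score for hepatomegaly, taken from the training set of the DILIps drug-induced liver injury prediction system; call rule not given here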; on HepSE liver disease: call rule not given here;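 on HepSE liver function tests abnormal: hepatic side effect score taken from the DILIps (drug-induced liver injury prediction system) training data, here covering abnormal liver function test findings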
[4] = system: Hepatotoxicity; remark: listed apart in the source;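 on HepSE Combined Scores: combined hepatic side effect score as listed in the training data of the Drug Induced Liver Injury Prediction System (DILIps)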;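 on HepSE bilirubinemia: bilirubinemia hepatic side effect score drawn from the DILIps training data, a prediction system for drug-induced liver injury; call rule not given here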;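 on HepSE cirrhosis: cirrhosis hepatic side effect score taken from the DILIps (drug-induced liver injury prediction) training set; call rule not given here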; on HepSE hepatic failure: call rule not given here;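 on HepSE hepatomegaly: hepatic side effect score for hepatomegaly, taken from the training set of the DILIps drug-induced liver injury prediction system; call rule not given here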; on HepSE liver disease: call rule not given here;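 on HepSE liver function tests abnormal: hepatic side effect score taken from the DILIps (drug-induced liver injury prediction system) training data, here covering abnormal liver function test findings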
[5] = system: Hepatotoxicity; remark: listed apart in the source; on HepSE hepatic failure: call rule not given here; on HepSE liver disease: call rule not given here
[6] = system: Hepatotoxicity; remark: listed apart in the source; on HepSE hepatic failure: call rule not given here; on HepSE liver disease: call rule not given here
[7] = system: Hepatotoxicity; remark: listed apart in the source
[8] = system: Hepatotoxicity; remark: listed apart in the source
[9] = system: Hepatotoxicity; remark: listed apart in the source
[10] = system: Hepatotoxicity; remark: listed apart in the source
[11] = system: Hepatotoxicity; remark: listed apart in the source
[12] = system: Hepatotoxicity; remark: listed apart in the source
[13] = system: Hepatotoxicity; remark: listed apart in the source
[14] = system: Hepatotoxicity; remark: listed apart in the source

| Compound | HepSE_bilirubinemia [1] | HepSE_hepatomegaly [2] | HepSE_liver function tests abnormal [3] | HepSE_liver disease [4] | HepSE_cirrhosis [5] | HepSE_hepatic failure [6] | HepSE_Combined Scores [7] | HepSE_liver fatty [8] | HepSE_hepatitis [9] | HepSE_cholelithiasis [10] | HepSE_hepatic necrosis [11] | HepSE_jaundice [12] | HepSE_elevated liver function tests [13] | HepSE_cholecystitis [14] | further results |
| --- | --- | --- | --- | --- | --- | --- | --- | --- | --- | --- | --- | --- | --- | --- | --- |
| CCOC(=O)C1=C(C)NC(C)=C(C(=O)OC)C1c1cccc(Cl)c1Cl (configuration not stated) [FELODIPINE] | 0 | 0 | 0 | 0 | 0 | 0 | 1 | 0 | 1 | 0 | 0 | 0 | 0 | 0 |  |
| COc1ccccc1OCC(O)COC(N)=O (configuration not stated) [METHOCARBAMOL] | 0 | 0 | 0 | 0 | 0 | 0 | 1 | 0 | 0 | 0 | 0 | 1 | 0 | 0 |  |
| CO/N=C(\C(=O)N[C@@H]1C(=O)N2C(C(=O)O)=C(CSc3nc(=O)c(=O)[nH]n3C)CS[C@H]12)c1csc(N)n1 [CEFTRIAXONE] | 0 | 0 | 0 | 0 | 0 | 0 | 0 | 0 | 0 | 0 | 0 | 0 | 0 | 0 |  |
| CCN1CCN(C(=O)N[C@@H](C(=O)N[C@@H]2C(=O)N3[C@@H]2SC(C)(C)[C@@H]3C(=O)O)c2ccccc2)C(=O)C1=O [PIPERACILLIN] | 1 | 0 | 0 | 1 | 0 | 0 | 3 | 0 | 1 | 0 | 0 | 0 | 0 | 0 |  |
| CN(C)CCC=C1c2ccccc2CCc2ccccc21 [AMITRIPTYLINE] | 0 | 0 | 0 | 0 | 0 | 1 | 3 | 0 | 1 | 0 | 0 | 1 | 0 | 0 |  |
| CN(C)[C@@H]1C(O)=C(C(N)=O)C(=O)[C@@]2(O)C(O)=C3C(=O)c4c(O)ccc(Cl)c4[C@@H](O)[C@H]3C[C@@H]12 [DEMECLOCYCLINE] | 0 | 0 | 0 | 0 | 0 | 1 | 2 | 0 | 1 | 0 | 0 | 0 | 0 | 0 |  |
| CC(C)[C@H]1CC[C@H](C(=O)N[C@H](Cc2ccccc2)C(=O)O)CC1 [NATEGLINIDE] | 0 | 0 | 0 | 1 | 0 | 0 | 3 | 0 | 1 | 0 | 0 | 1 | 0 | 0 |  |
| CNC[C@H](O)c1ccc(O)c(O)c1 [EPINEPHRINE] |  |  |  |  |  |  |  |  |  |  |  |  |  |  | HepSE_bilirubinemia ([1]; Liver): 0; HepSE_hepatomegaly ([2]; Liver): 0; HepSE_liver function tests abnormal ([3]; Liver): 0; HepSE_liver disease ([4]; Liver): 0; HepSE_cirrhosis ([5]; Liver): 0; HepSE_hepatic failure ([6]; Liver): 0; HepSE_Combined Scores ([7]; Liver): 0; HepSE_liver fatty ([8]; Liver): 0; HepSE_hepatitis ([9]; Liver): 0; HepSE_cholelithiasis ([10]; Liver): 0; HepSE_hepatic necrosis ([11]; Liver): 0; HepSE_jaundice ([12]; Liver): 0; HepSE_elevated liver function tests ([13]; Liver): 0; HepSE_cholecystitis ([14]; Liver): 0 |
| Clc1ccc(COC(Cn2ccnc2)c2ccc(Cl)cc2Cl)c(Cl)c1 (configuration not stated) [MICONAZOLE] | 0 | 0 | 0 | 0 | 0 | 0 | 0 | 0 | 0 | 0 | 0 | 0 | 0 | 0 |  |
| COc1cc(NCc2ccc3nc(N)nc(N)c3c2C)cc(OC)c1OC [TRIMETREXATE] | 0 | 0 | 0 | 0 | 0 | 0 | 0 | 0 | 0 | 0 | 0 | 0 | 0 | 0 |  |
| CC(=O)N(CC(O)CO)c1c(I)c(C(=O)NCC(O)CO)c(I)c(C(=O)NCC(O)CO)c1I (configuration not stated) [IOHEXOL] | 0 | 0 | 0 | 0 | 0 | 0 | 0 | 0 | 0 | 0 | 0 | 0 | 0 | 0 |  |
| GADOFOSVESET TRISODIUM | 0 | 0 | 0 | 0 | 0 | 0 | 0 | 0 | 0 | 0 | 0 | 0 | 0 | 0 |  |
| C[C@@H]1C[C@H]2[C@@H]3CCC4=CC(=O)C=C[C@]4(C)[C@@]3(F)[C@@H](O)C[C@]2(C)[C@H]1C(=O)CO [DESOXIMETASONE] | 0 | 0 | 0 | 0 | 0 | 0 | 0 | 0 | 0 | 0 | 0 | 0 | 0 | 0 |  |
